Tests used:
SK-MEL-28 cells = test: Antiproliferation; assay type: cell-based; conditions: Homo sapiens, SK-MEL-28, 72 h, read-out: SK-MEL-28 GI50
MEK1/2 = conditions: HT-29 cells, 0.3, 1 and 3 μM; previous study; cited from earlier work

| GI50 (SK-MEL-28 cells) [nM] | SMILES | MEK1/2 degradation (Western blot, words) (MEK1/2) |
| --- | --- | --- |
| ~100 | CCCS(=O)(=O)Nc1ccc(F)c(C(=O)c2c[nH]c3ncc(-c4ccc(Cl)cc4)cc23)c1F [PLX4032] |  |
|  | Cc1ncsc1-c1ccc(CNC(=O)[C@@H]2C[C@@H](O)CN2C(=O)[C@@H](NC(=O)CCCCCCCCCCNCCCONC(=O)c2ccc(F)c(F)c2Nc2ccc(I)cc2F)C(C)(C)C)cc1 [Compound 14, (2S,4R)-1-((S)-20-(tert-Butyl)-1-(3,4-difluoro-2-((2-fluoro-4-iodophenyl)amino)phenyl)-1,18-dioxo-3-oxa-2,7,19-triazahenicosan-21-oyl)-4-hydroxy-N-(4-(4-methylthiazol-5-yl)benzyl)pyrrolidine-2-carboxamide] | significantly degrade MEK1/2 protein levels |

Source: article PMC7770057 (Journal of medicinal chemistry, 2020)
